In US7635693B2, “Methods for preventing and treating cancer using N-thiolated β-lactam compounds and analogs thereof” (University of South Florida, priority 2002, dated 2009):
“And” between values parts separate entries of the source, which are not always exact repeats. Equal entries are not always repeated. Where two headings read alike, the source gives them in different places.

Columns and labels:
[1] = tested on: Jurkat T cells; assay: Flow cytometry cell cycle distribution and sub-G1 population, Jurkat T cells; type: cell-based, human; details: 50 μM; for increase in S phase population / sub-G1 apoptotic population: 5 hours
Method: Cell Death Differ 5:1062-75. At each time point, cells are harvested, counted, and washed twice with PBS. Cells (5×10^6) are suspended in 0.5 ml PBS, fixed in 5 ml of 70% ethanol for at least 2 h at −20° C., centrifuged, resuspended again in 1 ml of propidium iodide staining solution (50 μg propidium iodide, 100 units RNase A and 1 mg glucose per ml PBS), and incubated at room temperature for 30 minutes. The cells are then analyzed with FACScan (Becton Dickinson Immunocytometry, CA), ModFit LT and WinMDI V.2.8 cell cycle analysis software (Verity Software; Topsham, Me.). The cell cycle distribution is shown as the percentage of cells containing G1, S, G2, and M DNA judged by propidium iodide staining. The apoptotic population is determined as the percentage of cells with sub-G1 (<G1) DNA content.

[2] = tested on: caspase-3; assay: Cell-free caspase-3 activity assay on extracts of treated Jurkat T cells; type: cell-based, human; details: 50 μM, 8 hours
Method: (§1) Briefly, a prepared protein extract (20 μg) is incubated in a buffer containing 50 mM Tris/pH 8.0 along with each respective caspase substrate at 20 μM in a 96 well plate. The reaction mixture is incubated at 37° C. for 2 h.
A library of β-lactam analogs was screened for their ability to induce apoptosis. The screening procedure is accomplished by treating human Jurkat T cells with each compound at 50 μM for 8 hours. This is followed by preparation of cell lysates and measurement of apoptosis-specific caspase-3 activation (by cell-free caspase-3 activity assay) and PARP cleavage (by Western blotting).

[3] = tested on: Jurkat T cells; assay: Morphological changes of treated Jurkat T cells; type: cell-based, human; details: 50 μM, 8 hours
[4] = tested on: Jurkat T cells; assay: TUNEL assay (DNA strand breaks), Jurkat T cells; type: cell-based, human; details: for TUNEL-positive cell population (DNA damage): 4 hour
Method: Terminal deoxynucleotidyl transferase-mediated UTP nick end labeling (TUNEL) was performed to determine the extent of DNA strand breaks. TUNEL assay was performed with an APO-Direct kit per the manufacturer's instructions. In brief, cells are fixed in 1% paraformaldehyde and ethanol at […] overnight and then permeabilized with Proteinase K. After permeabilization, Fluorescein conjugated dNTP's and TdT enzyme (Terminal Deoxynucleotidyl Transferase) are added to the cells. The TdT enzyme is then able to label free ends of DNA with Fluorescein conjugated dNTPs that could then be detected by flow cytometry.
The assay was performed following manufacturer's instruction using the APO-Direct kit. In brief, the harvested cells were fixed in 1% paraformaldehyde for 15 min on ice, washed with PBS, and then fixed again in 70% ethanol at −20° C. overnight. The cells were then incubated in DNA labeling solution (containing terminal deoxynucleotidyl transferase (TdT) enzyme, fluorescein-conjugated dUTP and reaction buffer) for 90 min at 37° C. After removing the DNA labeling solution by rinsing cells with Rinsing Buffer, the cells were incubated with the Propidium Iodide/RNase A solution, incubated for 30 min at room temperature in the dark, and then analyzed by flow cytometry within 3 h of staining.

[5] = tested on: PARP; assay: PARP cleavage, Western blot, Jurkat T cells; type: cell-based, human; details: 50 μM, 8 hours
Source text: A library of β-lactam analogs was screened for their ability to induce apoptosis. […] This is followed by preparation of cell lysates and measurement of apoptosis-specific caspase-3 activation (by cell-free caspase-3 activity assay) and PARP cleavage (by Western blotting).

[6] = tested on: p38 MAP kinase; assay: p38 phosphorylation, Western blot, Jurkat T cells; type: cell-based, human; details: for normalized increase in phosphorylation of p38 over control: FIG. 8D
Source text: It has been shown that multiple stimuli including DNA damaging agents induce apoptosis via activation of p38 MAP kinase (Kummer J L, et al., 1997, Apoptosis induced by withdrawal of trophic factors is mediated by p38 mitogen-activated protein kinase. J. Biol Chem 272:20490-4; Sanchez-Prieto R, et al., 2000, A role for the p38 mitogen-acitvated protein kinase pathway in the transcriptional activation of p53 on genotoxic stress by chemotherapeutic agents. Cancer Res 60:2464-72). […] The levels of Tyr-182 phosphorylated p38 protein were increased by 3-fold at 2 h and reached its maximum (˜9-fold) by 6 h (FIG. 8A). In has been shown that dual phosphorylation of p38 on Tyr-182 and Thr-180 activates this kinase (Raingeaud J, et al., 1995, Pro-inflammatory cytokines and environmental stress cause p38 mitogen-activated protein kinase activation by dual phosphorylation on tyrosine and threonine. J Biol Chem 270:7420-6). […] Therefore, lactam 1-induced DNA damage triggered activation of p38 before S population accumulation and apoptosis induction.

[7] = tested on: Jurkat T cells; type: cell-based, human; details: for non-viable cell population / cell death (trypan blue): 50 μM
Method: The trypan blue exclusion assay was performed by injecting 10 μl of cell suspension containing 0.2% trypan blue dye into a hemoicytometer and counting. Numbers of cells that absorbed the dye and those that excluded the dye are counted, from which the percentage of non-viable cell number to total cell number is calculated.

[8] = tested on: caspase-3; details: LNCaP cells, 48 h
Method: To measure cell-free caspase-3 activity, whole cell extracts (20-30 μg) from untreated or treated LNCaP cells were incubated with 20 μM of the fluorogenic substrate caspase-3/caspase-7 (Ac-DEVD-AMC) for 30 min at 37° C. in 100 μl of assay buffer (50 mM Tris, pH 8.0).

[9] = tested on: NK cells (YT line); details: YT cells, 2, 10, 25, and 50 μM, 24 h
Method: The trypan blue dye exclusion assay was performed by mixing 20 μl of cell suspension with 20 μl of 0.4% trypan blue dye before injecting into a hemocytometer and counting. The number of cells that absorbed the dye and those that exclude the dye were counted, from which the percentage of nonviable cell number to total cell number was calculated.

[10] = tested on: PARP; details: YT cells, 2, 10, 25, and 50 μM, 12 h
Method: Human Jurkat T cells and human prostate cancer LNCaP cells were cultured in RPMI 1640 medium, supplemented with 10% fetal bovine serum, 100 units/ml penicillin, and 100 μg/ml streptomycin. Human YT cells were cultured in RPMI 1640 medium supplemented with 1 mM MEM sodium pyruvate solution, 0.1 mM MEM non-essential amino acids solution, 10% fetal bovine serum, 100 units/ml penicillin, and 100 μg/ml streptomycin. All cell lines were maintained at 37° C. in a humidified incubator with an atmosphere of 5% CO2. […] Briefly, cells were harvested, washed with PBS and homogenized in a lysis buffer (50 mM Tris-HCl, pH 8.0, 5 mM EDTA, 150 mM NaCl, 0.5% NP-40, 0.5 mM phenylmethylsulfonyl fluoride, and 0.5 mM dithiothreitol) for 30 min at 4° C. Afterwards, the lysates were centrifuged at 12000×g for 15 min at 4° C. and the supernatants collected as whole-cell extracts. Equal amounts of protein extract (60 μg) were resolved by SDS-polyacrylamide gel electrophoresis and transferred to a nitrocellulose membrane (Schleicher & Schuell, Keene, N. H.) using a Semi-Dry Transfer System (Bio-Rad, Hercules, Calif.). The enhanced chemiluminescence Western blot analysis was then performed using specific antibodies to the proteins of interest.

[11] = tested on: LNCaP cells; details: LNCaP cells in soft agar, 50 μM, 21 day-incubation
Method: The soft agar assay was performed as described previously (Menter D G, Sabichi A L, Lippman S M., 2000, Selenium effects on prostate cell growth. Cancer Epidemiol Biomarkers Prev 9:1171-82) with a few modifications. In brief, in a six-well plate, a bottom feeder layer (0.6% agar) was prepared with DMEM media containing 10% fetal bovine serum, 100 units/ml penicillin, and 100 μg/ml streptomycin. […] Plates were incubated at 37° C. in 5% CO2 in a humidified incubator for three weeks. MTT (1 mg/ml) was added to each well and incubated overnight to allow complete formation of purple formazan crystals. The plates were then scanned and photographed, and the number of colonies was quantified by Quantity one v.4.0.3 software (Bio-Rad, Hercules, Calif.).

[12] = tested on: caspase-8; assay: Cell-free caspase-8 activity in lysates of VP-16-treated Jurkat T cells, inhibitor present; type: biochemical, human; details: lysates of Jurkat T cells treated with 50 μM VP-16 for 5 hours
Method: as §1

[13] = tested on: caspase-9; assay: Cell-free caspase-9 activity in lysates of VP-16-treated Jurkat T cells, inhibitor present; type: biochemical, human; details: lysates of Jurkat T cells treated with 50 μM VP-16 for 5 hours
Method: as §1

[14] = tested on: caspase-3; assay: Cell-free caspase-3 activity in lysates of VP-16-treated Jurkat T cells, inhibitor present; type: biochemical, human; details: lysates of Jurkat T cells treated with 50 μM VP-16 for 5 hours
Method: as §1

COC1C(=O)NC1c1ccccc1Cl (racemic) [lactam 2]
increase in S phase population [1]: did not induce accumulation of either S or sub-G1 populations | sub-G1 apoptotic population [1]: did not induce accumulation of either S or sub-G1 populations | caspase-3 activation [2]: induces neither caspase-3 activation nor PARP cleavage | morphological changes [3]: no morphological changes | TUNEL-positive cell population (DNA damage) ([4]; 50 μM): did not cause any DNA damage | PARP cleavage [5]: induces neither caspase-3 activation nor PARP cleavage

CCSN1C(=O)C(OC)C1c1ccccc1Cl (racemic) [lactam 3]
increase in S phase population [1]: 15% | sub-G1 apoptotic population [1]: 10% | decrease of caspase-3 activity relative to lactam 1 [2]: ~50% | normalized increase in phosphorylation of p38 over control [6]: 3.2 fold | TUNEL-positive cell population (DNA damage) ([4]; 50 μM): 16% | decrease of PARP cleavage relative to lactam 1 [5]: ~50%

CCCCSN1C(=O)C(OC)C1c1ccccc1Cl (racemic) [lactam 4]
increase in S phase population [1]: 8% | sub-G1 apoptotic population [1]: 2% | decrease of caspase-3 activity relative to lactam 1 [2]: ~65% | normalized increase in phosphorylation of p38 over control [6]: 2.6 fold | TUNEL-positive cell population (DNA damage) ([4]; 50 μM): 3% | decrease of PARP cleavage relative to lactam 1 [5]: ~65%

COC1C(=O)N(SC)C1c1ccc(Cl)cc1 (racemic) [lactam 6]
decrease of caspase-3 activity relative to lactam 1 [2]: ~20% | decrease of PARP cleavage relative to lactam 1 [5]: ~20%

COC1C(=O)N(SCc2ccccc2)C1c1ccccc1Cl (racemic) [lactam 7]
decrease of caspase-3 activity relative to lactam 1 [2]: ~70% | decrease of PARP cleavage relative to lactam 1 [5]: ~70%

COC1C(=O)N(SC)C1c1ccccc1Br (racemic) [lactam 23]
non-viable cell population / cell death (trypan blue) ([7]; 24 h): 55%

COC1C(=O)N(SC)C1c1ccccc1I (racemic) [lactam 46]
non-viable cell population / cell death (trypan blue) ([7]; 24 h): 60%

COC1C(=O)N(SC)C1c1ccccc1[N+](=O)[O-] (racemic) [lactam 47]
sub-G1 population ([1]; 12 h): 34% | sub-G1 population ([1]; 24 h): 57% | increase in caspase-3 activity over control ([8]; 2 μM): 2 fold | increase in caspase-3 activity over control ([8]; 10 μM): 2.5 fold | increase in caspase-3 activity over control ([8]; 25 μM): 4.2 fold | cell death (trypan blue) ([7]; 10 μM, 24 h): 25% | cell death (trypan blue) ([7]; 25 μM, 3 h): 15% | trypan blue-positive cells ([7]; 25 μM, 6 h): 24% | cell death (trypan blue) ([7]; 25 μM, 24 h): 45% | non-viable cell population / cell death (trypan blue) ([7]; 24 h): ~94% and 80-90% | potency relative to lactam 1 ([7]; 24 h, trypan blue dose-response): ~2 fold | cell death (trypan blue) [9]: neither cell death | PARP cleavage [10]: nor PARP cleavage | TUNEL-positive cells ([4]; 50 μM, 12-24 h): 82-90% | cells with DNA strand breaks (TUNEL) ([4]; 50 μM, 3 h): ~70% | inhibition of colony formation [11]: ~100%

COC1C(=O)N(SC)C1c1ccccc1 (racemic) [lactam 48]
non-viable cell population / cell death (trypan blue) ([7]; 24 h): ~25%

COC1C(=O)N(SC)C1c1ccccc1F (racemic) [lactam 49]
non-viable cell population / cell death (trypan blue) ([7]; 24 h): ~35%

CC(C)(C)OC(=O)NC(CC(=O)O)C(=O)CF [Boc-D-FMK, N-tert-butoxycarbonyl-Asp-fluoromethyl ketone]
direct inhibition of caspase-8 activity [12]: completely blocked | direct inhibition of caspase-9 activity [13]: completely blocked | direct inhibition of caspase-3 activity [14]: completely blocked | effect on lactam 1-induced p38 phosphorylation ([6]; 4 hours, 50 μM lactam 1 plus inhibitor at 50 μM): not affected | TUNEL positivity on co-treatment with lactam 1 ([4]; 4 hours, 50 μM lactam 1 plus PD 169316 at 30 μM or Boc-D-FMK at 50 μM): 97%

O=C1CC2(CCCCC2)CN1 [lactam 5]
decrease of caspase-3 activity relative to lactam 1 [2]: ~20% | decrease of PARP cleavage relative to lactam 1 [5]: ~20%
